# From patent publication US8637525B2, “Compounds for the reduction of beta-amyloid production” (Bristol-Myers Squibb Company, priority 2009, dated 2014)
# pIC50: −log10 of the molar value. Where two headings read alike, the source gives them in different places.
# Test system: Aβ1-42 production
# Assay: Cellular assay for inhibition of Aβ1-42 production (H4 APP751 SWE clone 8.20)
# Type: cell-based
# Settings: H4 APP751 SWE clone 8.20 cells, 19 h incubation
# Outline: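 Aβ42 read by time-resolved FRET using neoepitope antibody 565 (0.8 ng/well) paired with N-terminal 26D6 (75 ng/well), incubated overnight at 4 °C, then IC50 curve fitting. Cells: H4 APP751 Swedish clone 8.20, exposed to compound for 19 h at 37 °C.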
# [1] = class symbols, read-out: Activity Rating (Aβ42 cellular IC50)
# [2] = 19 h, class symbols, read-out: Activity Rating (Aβ42 cellular IC50)
# [3] = 19 h, read-out: Activity Rating (Aβ42 cellular IC50), numeric value
Compound,pIC50 [1],pIC50 [2],also measured
"COc1cc(Nc2nc3c(c(N4CC(F)(F)C4)n2)COCC3c2ccc(F)c(F)c2)ccc1-n1cnc(Cl)c1 (centres unmarked) [Example 114B, N-(4-(4-chloro-1H-imidazol-1-yl)-3-methoxyphenyl)-4-(3,3-difluoroazetidin-1-yl)-8-(3,4-difluorophenyl)-7,8-dihydro-5H-pyrano[4,3-d]pyrimidin-2-amine]",6.00 to 7.00,,
"[2H]C([2H])([2H])Nc1nc(Nc2ccc(-n3cnc(Cl)c3)c(OC)c2)nc2c1CCC2c1ccc(F)cc1 (centres unmarked) [Example 47, N^2-(4-(4-Chloro-1H-imidazol-1-yl)-3-methoxyphenyl)-7-(4-fluorophenyl)-N^4-trideuteromethyl-6,7-dihydro-5H-cyclopenta[d]pyrimidine-2,4-diamine]",,8.00 to 8.82,
"CNc1nc(Nc2ccc3[nH]ccc3c2)nc2c1CCC2c1ccccc1 (centres unmarked) [Example 251, N2-(1H-indol-5-yl)-N4-methyl-7-phenyl-6,7-dihydro-5H-cyclopenta[d]pyrimidine-2,4-diamine]",,< 6.00,
"COc1cc(Nc2nc3c(c(N4CCC(F)C4)n2)COCC3c2ccc(F)cc2)ccc1-n1cnc(Cl)c1 (stereo in doubt) [Example 58A, N-(4-(4-chloro-1H-imidazol-1-yl)-3-methoxyphenyl)-8-(4-fluorophenyl)-4-((S)-3-fluoropyrrolidin-1-yl)-7,8-dihydro-5H-pyrano[4,3-d]pyrimidin-2-amine]",,8.00 to 8.82,
"CNc1nc(Nc2ccc(-n3cnc(Cl)c3)c(OC)c2)nc2c1COCC2c1ccc(OC(F)(F)F)cc1 (centres unmarked) [Example 122A, N2-(4-(4-chloro-1H-imidazol-1-yl)-3-methoxyphenyl)-N4-methyl-8-(4-(trifluoromethoxy)phenyl)-7,8-dihydro-5H-pyrano[4,3-d]pyrimidine-2,4-diamine]",,8.00 to 8.82,
"COc1cc(Nc2nc(N[C@H](C)C3CC3)c3c(n2)C(c2ccc(C(F)(F)F)cc2)COC3)ccc1-n1cnc(Cl)c1 (stereo partly drawn) [Example 117B, N2-(4-(4-chloro-1H-imidazol-1-yl)-3-methoxyphenyl)-N4-((R)-1-cyclopropylethyl)-8-(4-(trifluoromethyl)phenyl)-7,8-dihydro-5H-pyrano[4,3-d]pyrimidine-2,4-diamine]",6.00 to 7.00,,
"CNc1nc(Nc2ccc3nc[nH]c3c2)nc2c1CCC2c1ccccc1 (centres unmarked) [Example 253, N2-(1H-benzo[d]imidazol-6-yl)-N4-methyl-7-phenyl-6,7-dihydro-5H-cyclopenta[d]pyrimidine-2,4-diamine]",,,pIC50 [3]: 5.23
"CNc1nc(Nc2ccc(-n3cnc(Cl)c3)c(OC)c2)nc2c1CCC2c1cc(F)cc(F)c1 (racemic) [Example 102, N^2-(4-(4-Chloro-1H-imidazol-1-yl)-3-methoxyphenyl)-7-(3,5-difluorophenyl)-N^4-methyl-6,7-dihydro-5H-cyclopenta[d]pyrimidine-2,4-diamine]",,8.00 to 8.82,
"COc1cc(Nc2nc3c(c(N4CC5(CCCO5)C4)n2)CCC3c2ccccc2)ccc1-n1cnc(Cl)c1 (centres unmarked) [Example 188, N-(4-(4-chloro-1H-imidazol-1-yl)-3-methoxyphenyl)-7-phenyl-4-(5-oxa-2-azaspiro[3.4]octan-2-yl)-6,7-dihydro-5H-cyclopenta[d]pyrimidin-2-amine]",,,pIC50 [3]: 7.72
"CCNc1nc(Nc2ccc(-n3cnc(Cl)c3)c(OC)c2)nc2c1COCC2c1cc(F)cc(F)c1 (centres unmarked) [Example 112A, N2-(4-(4-chloro-1H-imidazol-1-yl)-3-methoxyphenyl)-8-(3,5-difluorophenyl)-N4-ethyl-7,8-dihydro-5H-pyrano[4,3-d]pyrimidine-2,4-diamine]",8.00 to 8.82,,
"CNc1nc(Nc2ccc(-n3cnc(C)n3)c(OC)c2)nc2c1COCC2c1ccc(F)cc1 (centres unmarked) [Example 54B, 8-(4-fluorophenyl)-N2-(3-methoxy-4-(3-methyl-1H-1,2,4-triazol-1-yl)phenyl)-N4-methyl-7,8-dihydro-5H-pyrano[4,3-d]pyrimidine-2,4-diamine]",8.00 to 8.82,,
